Assay results reported in US20250387388A1, “COMPOUND AS TRK INHIBITOR AND/OR RET INHIBITOR AND USE THEREOF” (Medinno Pharmaceutical Technology (Zhuhai) Co., Ltd., priority 2022, published 2025).
Read-outs that look alike come from different tables or passages of the source. One block for each compound: values may come before it.

Key:
acne model in rabbits = assay: Acne model in rabbits (coal tar + Propionibacterium acnes); type: in vivo, New Zealand white rabbits; details: 1% Clindamycin gel 0.5 g/kg once per day
Description: Modeling: Rabbits were acclimated for 7 days. On the right inner ear canal exit of the rabbits, a 2 cm×2 cm area was treated with 2% coal tar solution once a day, 0.5-1 mL each time, for 26 consecutive days. […] On the 8th day, Propionibacterium acnes was injected intradermally at 3-4 sites on the rabbit ears, 50 μl per rabbit, injected every other day for a total of 5 times. Treatment was started randomly on the 9th day after the last injection.
Rabbits were treated according to their groups. The blank group received no treatment. […] The model group received an equal amount of vehicle treatment, with the same application method and duration as the test drug groups.
Twenty-four hours after the last administration, a 2.8 cm punch was used to prepare ear samples at the application site, and their weight was measured. The ears from the modeling site were fixed with 4% paraformaldehyde, and consecutive sections (3 slices) were taken from the same location for HE staining and histopathological analysis. At the same time, the area of 3 hair follicles and the diameter of 3 sebaceous glands were measured to calculate the average values. Blood was drawn from the heart and centrifuged to obtain serum, and the levels of interleukin-1α (IL-1α), interleukin-6 (IL-6), and dihydrotestosterone (DHT) in serum were determined according to the ELISA kit instructions.
Tissue samples from animal ears were excised, fixed in 4% paraformaldehyde, dehydrated, embedded in paraffin, and sectioned and HE stained for observation of histopathological morphology changes. The tissue samples were fixed in 4% paraformaldehyde at normal temperature and the taken ears tissue was rinsed with running water for several hours, dehydrated through a series of ethanol solutions (70%, 80%, 90%), and then treated with a mixture of pure alcohol and xylene for 15 minutes, followed by xylene I for 15 minutes and xylene II for 15 minutes (until transparent). The tissue was then placed in a mixture of xylene and paraffin at a volume ratio of 1:1 for 15 minutes, followed by immersion with paraffin I and paraffin II each for 50-60 minutes. The tissue was embedded in paraffin and sectioned, and the sections were baked, dewaxed and hydrated in distilled water. The resulting sections were then stained in hematoxylin solution for 3 minutes, differentiated in a hydrochloric acid alcohol solution for 15 seconds, slightly washed, blued in a return blue solution for 15 seconds, rinsed with running water, stained with eosin for 3 minutes, rinsed with running water, dehydrated, cleared, and mounted for microscopic examination.
A double-antibody one-step sandwich Enzyme-linked Immunosorbent Assay (ELISA) ket was used. A capture antibody for the mouse target indicators was pre-coated onto microplate wells, to which samples, standards, and HRP-labeled detection antibodies were added sequentially, followed by incubation and thorough washing. TMB substrate was added for color development, which turned into blue in the presence of peroxidase and then into yellow after acidification. The depth of color was positively correlated with the concentration of the target in the samples. The absorbance (OD450 value) was measured at a wavelength of 450 nm using the microplate reader, and the sample concentration was calculated.

TRKA = TRKA (Homo sapiens (Human), UniProt P04629); assay: Inhibitory activity on TRKA (ADP-Glo Kinase Assay)
TRKB = TRKB (Homo sapiens (Human), UniProt Q16620); assay: Inhibitory activity on TRKB (ADP-Glo Kinase Assay)
TRKC = TRKC (Homo sapiens (Human), UniProt Q16288); assay: Inhibitory activity on TRKC (ADP-Glo Kinase Assay)
[1] = system: ovalbumin-induced asthma model in mice; assay: Ovalbumin-induced asthma model in mice; type: in vivo, Balb/c mice; details: vs. vehicle (model) group; nasal administration BID 5 days: MDI-1228 3 mg/kg, MDI-1288 3 mg/kg, MDI-1233 1, 3, 10 mg/kg; dexamethasone 1 mg/kg gavage QD
Description: After 7 days of acclimatization, animals were randomly grouped based on their body weight. The experiment was divided into 8 groups, with 8 mice in each group, as detailed in the table below.
• Preparation of Immunogen: Weigh an appropriate amount of OVA, to which an appropriate amount of PBS was added, to achieve a final concentration of 0.1 mg/ml. Then, an equal volume of aluminum adjuvant was added, and the resulting mixture was mixed well, and stored at 4° C., which was prepared before use. • Preparation of Sensitizer (5% OVA): Weigh an appropriate amount of OVA, to which an appropriate amount of PBS was added, to achieve a final concentration of 5%. The resulting mixture was mixed well, and store it at 4° C. for later use, which was prepared before use. • Preparation of Vehicle: Add 200 μl of Tween 80 to 100 ml of saline, and mix it well. […] Mix it well, and store it at 4° C. for later use. […] Mix it well, and store it at 4° C. for later use. […] Mix it well, and store it at 4° C. for later use. The solution was prepared once every three days.
• Immunization: On days 0, 7, 14, and 21, 200 μl of PBS was injected intraperitoneally for the first group, and 200 μl of (10 μg) OVA/aluminum adjuvant emulsion was injected intraperitoneally for groups 2-8. • Sensitization: From days 28 to 32, the first group of animals was exposed to nebulized PBS in a nebulization box for 20 minutes, and the groups 2-8 were exposed to nebulized 5% OVA in a nebulization box for 20 minutes. And then, they were removed. The sensitization was conducted at 12:30 PM daily. • Administration: The medicine was administrated twice a day at 9 AM and 5 PM via nasal drops. Dexamethasone (Dex) was administered by gavage once a day at 9 AM.
Serum IgE: Blood was collected from the orbits of animals after carbon dioxide euthanasia, and plasma was separated and stored at −40 degrees for plasma IgE detection.
Bronchoalveolar Lavage Fluid (BALF) Cell Count: An appropriate amount of foetal bovine serum was weighted and dissolved in PBS to a final concentration of 1%. After orbital blood collection, the trachea was exposed, and a 1 ml syringe needle was replaced with a mouse gavage needle. 0.8 ml of the lavage fluid was aspirated from the syringe and the lungs were lavaged three times. The lavage fluids were collected, and centrifuged at 1000 rpm for 10 minutes, and the supernatant was collected and stored at −40 degrees Celsius. Cells were resuspended with 1 ml of PBS and counted. 100 ul of centrifuged smear was taken and stained with Diff quick and the number of eosinophils, basophils, lymphocytes and macrophages were recorded.
Bronchoalveolar Lavage Fluid IL-5: Bronchoalveolar lavage fluid was collected to detect IL-5.
Pathological scoring criteria were: • A) 0 points: No lymphocyte infiltration; • B) 1 point: Trace lymphocyte infiltration; • C) 2 points: Mild lymphocyte infiltration; • D) 3 points: Moderate lymphocyte infiltration; • E) 4 points: Severe lymphocyte infiltration; • After scoring, the results were calculated and analyzed.

[2] = system: imiquimod-induced psoriasis model; assay: Imiquimod-induced psoriasis model in mice; details: for Clinical Score (mean ± standard error) / Skin Thickness Score (mean ± standard error): Calcitriol 75 mg/mice topical QD

TRKC, sequence (Q16288 32-839): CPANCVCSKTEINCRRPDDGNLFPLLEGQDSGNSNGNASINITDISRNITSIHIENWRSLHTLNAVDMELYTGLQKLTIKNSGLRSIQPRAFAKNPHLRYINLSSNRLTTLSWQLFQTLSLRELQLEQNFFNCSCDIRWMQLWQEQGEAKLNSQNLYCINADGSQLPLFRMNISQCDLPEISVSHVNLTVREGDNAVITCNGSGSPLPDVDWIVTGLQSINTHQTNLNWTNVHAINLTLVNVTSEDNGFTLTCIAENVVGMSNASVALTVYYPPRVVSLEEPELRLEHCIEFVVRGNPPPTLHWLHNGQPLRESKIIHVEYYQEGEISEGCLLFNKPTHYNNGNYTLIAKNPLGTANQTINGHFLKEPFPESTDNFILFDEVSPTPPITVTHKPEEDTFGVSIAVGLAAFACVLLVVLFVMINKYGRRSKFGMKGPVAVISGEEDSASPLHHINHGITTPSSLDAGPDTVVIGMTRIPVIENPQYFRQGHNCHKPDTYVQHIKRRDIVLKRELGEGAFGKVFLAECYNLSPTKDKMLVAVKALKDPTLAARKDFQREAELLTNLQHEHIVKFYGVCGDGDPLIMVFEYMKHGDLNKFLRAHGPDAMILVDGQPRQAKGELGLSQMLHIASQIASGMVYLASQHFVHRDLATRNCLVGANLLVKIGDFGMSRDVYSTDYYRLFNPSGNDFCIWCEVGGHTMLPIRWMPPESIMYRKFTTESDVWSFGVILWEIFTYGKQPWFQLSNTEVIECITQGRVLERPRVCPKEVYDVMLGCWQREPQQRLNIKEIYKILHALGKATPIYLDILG
TRKA, sequence (P04629 33-796 limits assumed): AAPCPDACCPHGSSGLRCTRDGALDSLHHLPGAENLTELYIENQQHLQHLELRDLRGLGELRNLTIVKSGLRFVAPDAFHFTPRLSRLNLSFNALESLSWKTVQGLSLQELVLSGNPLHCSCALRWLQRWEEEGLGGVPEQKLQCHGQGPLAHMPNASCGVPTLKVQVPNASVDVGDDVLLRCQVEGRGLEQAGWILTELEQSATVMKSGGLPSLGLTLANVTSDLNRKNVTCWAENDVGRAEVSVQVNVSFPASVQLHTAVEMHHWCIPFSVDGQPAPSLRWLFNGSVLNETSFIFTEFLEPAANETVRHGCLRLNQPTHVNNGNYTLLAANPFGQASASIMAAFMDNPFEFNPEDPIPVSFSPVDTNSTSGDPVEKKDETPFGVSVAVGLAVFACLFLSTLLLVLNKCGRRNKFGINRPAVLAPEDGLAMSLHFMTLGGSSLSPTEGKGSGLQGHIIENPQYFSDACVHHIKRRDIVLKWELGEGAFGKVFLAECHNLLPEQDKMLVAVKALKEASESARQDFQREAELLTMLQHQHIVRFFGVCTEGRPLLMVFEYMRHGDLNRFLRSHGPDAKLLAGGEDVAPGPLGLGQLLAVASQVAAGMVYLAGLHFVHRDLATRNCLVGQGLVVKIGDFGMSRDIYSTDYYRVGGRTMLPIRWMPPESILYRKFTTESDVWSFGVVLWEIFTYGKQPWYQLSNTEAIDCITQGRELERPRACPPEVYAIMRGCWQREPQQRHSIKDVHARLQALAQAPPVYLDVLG
TRKB, sequence (Q16620 32-822): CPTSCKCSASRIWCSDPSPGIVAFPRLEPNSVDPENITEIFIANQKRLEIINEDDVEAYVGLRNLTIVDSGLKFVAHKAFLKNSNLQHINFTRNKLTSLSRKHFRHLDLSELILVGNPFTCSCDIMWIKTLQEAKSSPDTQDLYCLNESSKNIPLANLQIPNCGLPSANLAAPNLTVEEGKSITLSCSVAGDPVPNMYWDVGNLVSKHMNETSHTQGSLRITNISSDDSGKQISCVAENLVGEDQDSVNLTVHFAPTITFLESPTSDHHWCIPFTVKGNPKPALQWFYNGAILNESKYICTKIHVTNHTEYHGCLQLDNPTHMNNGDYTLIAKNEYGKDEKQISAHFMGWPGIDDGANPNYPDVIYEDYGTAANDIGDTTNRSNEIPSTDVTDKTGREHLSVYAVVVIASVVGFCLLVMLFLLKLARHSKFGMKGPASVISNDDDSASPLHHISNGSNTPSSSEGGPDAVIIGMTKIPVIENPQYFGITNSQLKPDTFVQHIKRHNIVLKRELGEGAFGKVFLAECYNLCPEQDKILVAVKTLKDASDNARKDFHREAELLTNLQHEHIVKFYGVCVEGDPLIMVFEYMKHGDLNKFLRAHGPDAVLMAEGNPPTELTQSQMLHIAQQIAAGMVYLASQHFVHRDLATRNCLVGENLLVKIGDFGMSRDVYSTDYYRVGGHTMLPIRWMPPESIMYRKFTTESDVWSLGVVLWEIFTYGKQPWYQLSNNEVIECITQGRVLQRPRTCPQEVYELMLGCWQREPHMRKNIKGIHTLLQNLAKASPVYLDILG

SMILES: CCC[C@@H]1C[C@@H](C(=O)N[C@@H]([C@H]2O[C@H](SC)[C@H](O)[C@@H](O)[C@H]2O)[C@H](C)Cl)N(C)C1 [clindamycin, reference compound]
Hair follicle area (acne model in rabbits): not improved
Rabbit ear weight (acne model in rabbits; 2 weeks): did not reduce ear weight

IC50 (TRKA): 0.23 nM
IC50 (TRKB): 1.06 nM
IC50 (TRKC): 0.2 nM
SMILES: CCc1cc(O)c(F)cc1-c1ccc2c(-c3nc4c([nH]3)CN(C(=O)N3CCN(CC)CC3)C4)n[nH]c2c1 [MDI-236, (2-(6-(2-ethyl-5-fluoro-4-hydroxyphenyl)-1H-indazol-3-yl)-4,6-dihydropyrrolo[3,4-d]imidazol-5-(1H)-yl)(4-ethylpiperazin-1-yl)ketone]

IC50 (TRKA; read-out: TRKA IC50, ATP 5 μM): 12 nM
IC50 (TRKB; read-out: TRKB IC50, ATP 5 μM): 3.58 nM
IC50 (TRKC; read-out: TRKC IC50, ATP 5 μM): 3.77 nM
SMILES: CCc1cc(O)c(F)cc1-c1ccc2c(-c3nc4c([nH]3)CN(C(=O)NCCO)C4)n[nH]c2c1 [MDI-248, 2-(6-(2-ethyl-5-fluoro-4-hydroxyphenyl)-1H-indazol-3-yl)-N-(2-hydroxylethyl)-4,6-dihydropyrrolo[3,4-d]imidazol-5(1H)-carboxamide]

SMILES: CCc1cc(O)c(F)cc1-c1ccc2c(-c3nc4c([nH]3)CN(S(=O)(=O)C3CC3)C4)n[nH]c2c1 [MDI-218, 4-(3-(5-(cyclopropanesulfonyl)-1,4,5,6-tetrahydropyrrolo[3,4-d]imidazol-2-yl)-1H-indazol-6-yl)-5-ethyl-2-fluorophenol]
IC50 (TRKA; read-out: TRKA IC50, ATP 5 μM): 9.97 nM
IC50 (TRKB; read-out: TRKB IC50, ATP 5 μM): 32.3 nM
IC50 (TRKC; read-out: TRKC IC50, ATP 5 μM): 5.1 nM

IC50 (TRKA): 1.07 nM
IC50 (TRKB): 1.27 nM
IC50 (TRKC): 0.65 nM
SMILES: CCc1cc(O)c(F)cc1-c1ccc2c(-c3nc4c([nH]3)CN(C(=O)N3CCOCC3)C4)n[nH]c2c1 [MDI-234, (2-(6-(2-ethyl-5-fluoro-4-hydroxyphenyl)-1H-indazol-3-yl)-4,6-dihydropyrrolo[3,4-d]imidazol-5-(1H)-yl)(morpholino)ketone]

IC50 (TRKA): 2.82 nM
IC50 (TRKB): 5.86 nM
IC50 (TRKC): 1.49 nM
SMILES: CCc1cc(O)c(F)cc1-c1ccc2c(-c3nc4c([nH]3)CN(C(=O)N3CCCC3)C4)n[nH]c2c1 [MDI-231, (2-(6-(2-ethyl-5-fluoro-4-hydroxyphenyl)-1H-indazol-3-yl)-4,6-dihydropyrrolo[3,4-d]imidazol-5-(1H)-yl)(pyrrolidin-1-yl)ketone]

SMILES: C[C@@H]1C[C@H]2[C@@H]3CCC4=CC(=O)C=C[C@]4(C)[C@@]3(F)[C@@H](O)C[C@]2(C)[C@@]1(O)C(=O)CO [dexamethasone, reference compound]
Bronchoalveolar lavage fluid IL-5 expression level [1]: significantly reduced the expression of IL-5
Inflammatory cell count in bronchoalveolar lavage fluid [1]: significantly reduced the Inflammatory Cell Count
Lung tissue inflammatory cell infiltration (HE pathology) [1]: significantly reduced the lung tissue inflammatory cell infiltration
Serum IgE expression level [1]: significantly reduced the expression of IgE

IC50 (TRKB; read-out: TRKB IC50, ATP 5 μM): 2.93 nM
IC50 (TRKC; read-out: TRKC IC50, ATP 5 μM): 0.72 nM
SMILES: CCc1cc(O)c(F)cc1-c1ccc2c(-c3nc4c([nH]3)CN(C(=O)N(C)C)C4)n[nH]c2c1 [MDI-257, 2-(6-(2-ethyl-5-fluoro-4-hydroxyphenyl)-1H-indazol-3-yl)-N,N-dimethyl-4,6-dihydropyrrolo[3,4-d]imidazol-5(1H)-carboxamide]

IC50 (TRKA): 9.01 nM
IC50 (TRKB): 30.4 nM
IC50 (TRKC): 6.32 nM
SMILES: CCc1cc(O)c(F)cc1-c1ccc2c(-c3nc4c([nH]3)CN(C(=O)N3CCCCC3)C4)n[nH]c2c1 [MDI-233]

IC50 (TRKA; read-out: TRKA IC50, ATP 5 μM): 11.4 nM
IC50 (TRKB; read-out: TRKB IC50, ATP 5 μM): 98.8 nM
IC50 (TRKC; read-out: TRKC IC50, ATP 5 μM): 13.1 nM
SMILES: CCOC(=O)N1Cc2nc(-c3n[nH]c4cc(-c5cc(F)c(O)cc5CC)ccc34)[nH]c2C1 [MDI-253, Ethyl 2-(6-(2-ethyl-5-fluoro-4-hydroxyphenyl)-1H-indazol-3-yl)-4,6-dihydropyrrolo[3,4-d]imidazol-5(1H)-carboxylate]

SMILES: C=C1/C(=C\C=C2/CCC[C@]3(C)[C@@H]([C@H](C)CCCC(C)(C)O)CC[C@@H]23)C[C@@H](O)C[C@@H]1O [Calcitriol]
Clinical Score (mean ± standard error) ([2]; Day 0): 0.0 ± 0.00
Skin Thickness Score (mean ± standard error) ([2]; Day 0): 0.0 ± 0.00
Clinical Score (mean ± standard error) ([2]; Day 1): 0.2 ± 0.13
Skin Thickness Score (mean ± standard error) ([2]; Day 1): 0.0 ± 0.00
Clinical Score (mean ± standard error) ([2]; Day 2): 1.2 ± 0.13
Skin Thickness Score (mean ± standard error) ([2]; Day 2): 0.0 ± 0.00
Clinical Score (mean ± standard error) ([2]; Day 3): 3.1 ± 0.28
Skin Thickness Score (mean ± standard error) ([2]; Day 3): 0.7 ± 0.15
Clinical Score (mean ± standard error) ([2]; Day 4): 4.3 ± 0.26
Skin Thickness Score (mean ± standard error) ([2]; Day 4): 1.2 ± 0.20
Clinical Score (mean ± standard error) ([2]; Day 5): 2.9 ± 0.18
Skin Thickness Score (mean ± standard error) ([2]; Day 5): 0.8 ± 0.20
Clinical Score (mean ± standard error) ([2]; Day 6): 2.5 ± 0.17
Skin Thickness Score (mean ± standard error) ([2]; Day 6): 0.5 ± 0.17
Clinical Score (mean ± standard error) ([2]; Day 7): 2.0 ± 0.00
Skin Thickness Score (mean ± standard error) ([2]; Day 7): 0.0 ± 0.00
Inhibition percentage of skin thickness score AUC relative to vehicle control group ([2]; calcitriol 75 mg/mice QD): 64.2%
Skin histopathology ([2]; calcitriol 75 mg/mice QD): a trend of mitigation

IC50 (TRKA): 5.76 nM
IC50 (TRKB): 6.14 nM
IC50 (TRKC): 2.2 nM
SMILES: CCc1cc(O)c(F)cc1-c1ccc2c(-c3nc4c([nH]3)CN(C(=O)c3cnc(N5CCOCC5)cn3)C4)n[nH]c2c1 [MDI-201, (2-(6-(2-ethyl-5-fluoro-4-hydroxyphenyl)-1H-indazol-3-yl)-4,6-dihydropyrrolo[3,4-d]imidazol-5(1H)-yl)(5-morpholinepyrazin-2-yl)ketone]
